Assay results reported in patent US7049321B2, “Methods and pharmaceutical compositions for treatment of central and peripheral nervous system disorders and compounds useful therefor” (Israel Institute for Biological Research, priority 2002, dated 2006).
Entries after “also recorded” stand apart in the source; their conditions may differ.

Key:
[1] = target: CYP1A2 (Homo sapiens, UniProt P05177); experiment: Cytochrome P450 inhibition, CYP1A2; format: in vitro ADME; conditions: up to 10 μM
Procedure: (§1) Cytochrome P450 activity can be an indicator for potential drug-drug interactions. AF292 was evaluated in a microtiter plate assay for P450 inhibition.

[2] = target: CYP3A4 (Homo sapiens, UniProt P08684); experiment: Cytochrome P450 inhibition, CYP3A4; format: in vitro ADME; conditions: up to 10 μM
Procedure: as §1

[3] = target: CYP2C19 (Homo sapiens, UniProt P33261); experiment: Cytochrome P450 inhibition, CYP2C19; format: in vitro ADME; conditions: up to 10 μM
Procedure: as §1

[4] = target: T1, M2 mAChR (Homo sapiens, UniProt P08172); experiment: Intracellular Ca increase in modified cell cultures, M2; format: cell-based; conditions: 10^−9–10^−3M
T1 construct: expressed in transfected cells; host or cells: 'modified cell cultures' giving a Ca increase; modification not described

[5] = target: CYP2C9 (Homo sapiens, UniProt P11712); experiment: Cytochrome P450 inhibition, CYP2C9; format: in vitro ADME; conditions: up to 10 μM
Procedure: as §1

[6] = target: hERG-encoded channel (Homo sapiens, UniProt Q12809); experiment: Astemizole (HERG channel) binding assay
Procedure: • 1. Astemizole (human ether-a-go-go related gene (HERG) Channel) Binding Assay. […] Isolated Guinea Pig Right Atrium (atrial fibrillation). […] Effects of AF292 (dose 5 mg/kg orally) on cardiac electrophysiological, cardio-haemodynamic in instrumented, awake dogs. Healthy trained and chronically instrumented female Beagle dogs of varying age and ranging in body weight from 9.4 to 12 kg, were used for recording of the cardiovascular parameters: heart rate, diastolic and systolic blood pressure, pressure rate product, LV dp/dt max, LV dp/dt max/pd, LV dp/dt min, cardiac output, stroke volume, systemic vascular resistance and the ECG parameters (PQ-, QRS-, QT-, QTcBazett-(QTcB), QTcFridericia-(QTcF) and QTcVan de Water-(QTcVdW) interval duration and QT-dispersion. During the last 18 hours prior to the experiments, the dogs had no access to food. Water was available ad libitum. At the beginning of each experiment, control values of the various parameters were recorded for at least 30 min. Thereafter, 5 mg/kg of AF292 (n=4) or the corresponding volume of the solvent (n=4) was administered orally by gavage. The various haemodynamic parameters were recorded continuously for 4 hours thereafter.

[7] = system: adenosine, adrenergic, angiotensin, BZD, bradykinin, CCK, dopamine, opiate, serotonin and other receptors, ion channels, NE transporter; experiment: Binding panel of other receptors, channels and transporter (AF292); conditions: 10 μm
[8] = target: T2, human M1 (Homo sapiens, UniProt P11229); experiment: Binding study, M1 (human); conditions: 10 μm
T2 sequence (P11229 1-460): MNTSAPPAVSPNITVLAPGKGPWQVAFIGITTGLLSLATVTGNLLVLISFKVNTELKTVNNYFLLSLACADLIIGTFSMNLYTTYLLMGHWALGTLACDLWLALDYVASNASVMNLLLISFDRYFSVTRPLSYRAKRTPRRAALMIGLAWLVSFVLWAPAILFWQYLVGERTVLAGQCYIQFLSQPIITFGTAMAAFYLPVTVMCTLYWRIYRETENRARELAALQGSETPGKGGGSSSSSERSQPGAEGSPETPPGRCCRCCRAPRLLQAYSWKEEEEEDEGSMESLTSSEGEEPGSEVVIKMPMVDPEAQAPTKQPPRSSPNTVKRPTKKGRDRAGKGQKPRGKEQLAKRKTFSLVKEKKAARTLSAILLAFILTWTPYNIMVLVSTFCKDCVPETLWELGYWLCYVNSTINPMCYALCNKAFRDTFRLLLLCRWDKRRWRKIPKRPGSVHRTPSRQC

[9] = system: rabbits with nbm lesions; experiment: CSF and cortical Aβ in hypocholinergic (nbm-lesioned) rabbits; format: in vivo, New Zealand White rabbits; conditions: 4 weeks
Text: It is known that experimentally-induced cortical cholinergic denervation results in biochemical elevations of cortical Aβ concentrations and in histologic Aβ deposition (Beach et al, Neurosci Lett 283: 9–12, 2000), and that administration of muscarinic Ml-selective agents to normal animals decreases CSF AP concentrations {Beach et al Brain Res. 905: 220–223, 2001}.
Twenty-eight female New Zealand White rabbits, about 2.5 kg each (young adults) were used. Twenty-one received lesions of the cholinergic nucleus basalis magnocellularis (nbm). The lesion was accomplished with unilateral i.c.v. injections of an immunotoxin consisting of the ribosomal toxin saporin conjugated to the monoclonal antibody ME20.4, which is directed against the low-affinity neurotrophin receptor, p75. The ME20.4 antibody is made against monkey p75 and also recognizes rabbit p75. The dose of immunotoxin was 32.4 μg in 12 μl; this was delivered to the right lateral ventricle 2 mm lateral to the bregma. Seven animals received i.c.v. injections of sterile normal saline (sham lesion). Animals which received the immunotoxin were divided into 3 groups of 7. […] Another group received physostigmine hemisalicylate in normal saline by s.c. osmotic pump at a daily dose of 3 mg/kg. The third group received twice-daily sterile saline s.c. injections. The animals which received a sham lesion were implanted with s.c. osmotic pumps filled with sterile normal saline. Animals were euthanized 4 weeks after surgery. […] Cerebrospinal fluid was taken from the cisterna magna of all animals at the time of sacrifice; the brain was removed and sliced coronally into 0.5 cm slices. […] The other slices were frozen on sheets of dry ice (the other slices are the non-fixed 0.5 cm coronal slices of cerebrum, brainstem and cerebellum).

[10] = system: Opiods/Opiate, Non-Selective; experiment: Opiate non-selective binding; conditions: at 10^−4 M
[11] = Chronic toxicity up to 13 weeks, rat; format: in vivo, Wistar rat
[12] = system: ApoE; experiment: ApoE synthesis and secretion in primary type 1 astrocytes; format: cell-based, rat
Procedure: Primary cultures of type 1 astrocytes were derived from the cortex of Sprague Dawley rats. The compounds tested were dissolved in the culture media and added to cells for 24, 48, 72 and 96 hrs. Media was then removed and kept frozen until ApoE protein levels were evaluated by immunoblot analysis as described in Poirier et al Neuroscience 55: 81–90 (1993). Alternatively the methods of Cedazo-Minuez et al [Neurosci 105: 651–661, 2001} may be employed.

[13] = mouse, in vivo
[14] = physchem

T1 sequence (P08172 whole entry): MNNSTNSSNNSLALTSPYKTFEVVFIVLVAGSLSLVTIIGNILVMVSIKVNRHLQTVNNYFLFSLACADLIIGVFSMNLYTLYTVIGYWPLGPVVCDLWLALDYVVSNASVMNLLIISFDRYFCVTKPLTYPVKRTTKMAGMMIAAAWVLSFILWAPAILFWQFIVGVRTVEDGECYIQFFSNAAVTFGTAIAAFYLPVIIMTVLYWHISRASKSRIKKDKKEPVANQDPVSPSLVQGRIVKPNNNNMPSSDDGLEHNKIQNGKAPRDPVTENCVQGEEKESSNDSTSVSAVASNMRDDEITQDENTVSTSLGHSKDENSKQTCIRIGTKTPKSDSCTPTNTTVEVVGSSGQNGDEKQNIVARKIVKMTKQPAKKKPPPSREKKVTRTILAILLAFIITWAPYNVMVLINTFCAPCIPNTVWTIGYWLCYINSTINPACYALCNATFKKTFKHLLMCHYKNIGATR
Sequence of CYP1A2 (P05177 whole entry): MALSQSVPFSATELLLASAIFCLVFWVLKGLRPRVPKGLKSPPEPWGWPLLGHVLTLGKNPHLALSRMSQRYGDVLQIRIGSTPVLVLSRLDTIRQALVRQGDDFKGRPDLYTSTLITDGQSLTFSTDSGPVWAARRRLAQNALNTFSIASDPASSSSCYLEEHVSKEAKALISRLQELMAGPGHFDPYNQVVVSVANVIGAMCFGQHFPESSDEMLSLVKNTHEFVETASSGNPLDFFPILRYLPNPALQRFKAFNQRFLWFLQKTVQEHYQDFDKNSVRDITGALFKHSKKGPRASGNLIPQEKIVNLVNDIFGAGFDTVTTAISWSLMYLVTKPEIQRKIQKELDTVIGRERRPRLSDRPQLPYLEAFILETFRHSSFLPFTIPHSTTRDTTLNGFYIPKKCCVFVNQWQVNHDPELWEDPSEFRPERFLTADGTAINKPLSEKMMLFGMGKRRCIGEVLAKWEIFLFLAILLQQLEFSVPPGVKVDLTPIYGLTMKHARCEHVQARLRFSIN
Sequence of CYP2C19 (P33261 whole entry): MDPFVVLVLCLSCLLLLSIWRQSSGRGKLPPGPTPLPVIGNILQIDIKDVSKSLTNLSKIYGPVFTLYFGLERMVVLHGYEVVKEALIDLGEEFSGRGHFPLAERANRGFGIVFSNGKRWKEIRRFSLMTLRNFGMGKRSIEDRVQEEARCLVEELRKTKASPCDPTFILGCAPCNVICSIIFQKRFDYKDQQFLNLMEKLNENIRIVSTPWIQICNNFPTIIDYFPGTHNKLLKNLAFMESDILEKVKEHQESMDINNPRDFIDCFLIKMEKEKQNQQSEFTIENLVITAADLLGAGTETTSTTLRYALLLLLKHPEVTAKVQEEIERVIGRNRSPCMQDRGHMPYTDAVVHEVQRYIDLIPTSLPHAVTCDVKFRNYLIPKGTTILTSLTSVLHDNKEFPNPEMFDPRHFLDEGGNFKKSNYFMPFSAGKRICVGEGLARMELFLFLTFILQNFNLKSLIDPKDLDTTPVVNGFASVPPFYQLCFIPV
Sequence of CYP3A4 (P08684 whole entry): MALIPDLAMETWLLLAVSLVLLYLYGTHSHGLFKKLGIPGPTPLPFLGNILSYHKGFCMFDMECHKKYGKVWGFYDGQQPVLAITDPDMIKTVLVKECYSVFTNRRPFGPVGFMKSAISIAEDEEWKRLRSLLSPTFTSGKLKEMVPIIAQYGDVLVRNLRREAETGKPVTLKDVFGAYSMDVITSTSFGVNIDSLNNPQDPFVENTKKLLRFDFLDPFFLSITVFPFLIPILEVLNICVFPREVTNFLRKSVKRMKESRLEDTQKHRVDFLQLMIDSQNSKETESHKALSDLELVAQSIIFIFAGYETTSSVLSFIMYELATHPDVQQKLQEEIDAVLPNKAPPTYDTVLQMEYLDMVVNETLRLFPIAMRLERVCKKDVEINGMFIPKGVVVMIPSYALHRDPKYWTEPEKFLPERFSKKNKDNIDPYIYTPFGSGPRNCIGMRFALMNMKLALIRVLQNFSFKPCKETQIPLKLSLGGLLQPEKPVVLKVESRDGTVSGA
Sequence of CYP2C9 (P11712 whole entry): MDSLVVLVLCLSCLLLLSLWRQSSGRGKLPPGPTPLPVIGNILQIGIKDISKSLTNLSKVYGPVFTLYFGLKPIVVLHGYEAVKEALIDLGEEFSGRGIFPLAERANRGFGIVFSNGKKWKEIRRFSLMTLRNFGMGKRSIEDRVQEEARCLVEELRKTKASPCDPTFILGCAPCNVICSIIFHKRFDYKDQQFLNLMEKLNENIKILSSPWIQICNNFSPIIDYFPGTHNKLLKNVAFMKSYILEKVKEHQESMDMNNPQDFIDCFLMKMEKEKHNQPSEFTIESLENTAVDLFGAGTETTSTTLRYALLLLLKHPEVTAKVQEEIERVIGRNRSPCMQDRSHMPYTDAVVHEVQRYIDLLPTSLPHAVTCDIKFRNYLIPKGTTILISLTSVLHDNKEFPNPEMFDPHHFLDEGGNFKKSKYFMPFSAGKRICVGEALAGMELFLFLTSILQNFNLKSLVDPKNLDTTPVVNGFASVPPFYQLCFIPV
Sequence of hERG-encoded channel (Q12809 whole entry): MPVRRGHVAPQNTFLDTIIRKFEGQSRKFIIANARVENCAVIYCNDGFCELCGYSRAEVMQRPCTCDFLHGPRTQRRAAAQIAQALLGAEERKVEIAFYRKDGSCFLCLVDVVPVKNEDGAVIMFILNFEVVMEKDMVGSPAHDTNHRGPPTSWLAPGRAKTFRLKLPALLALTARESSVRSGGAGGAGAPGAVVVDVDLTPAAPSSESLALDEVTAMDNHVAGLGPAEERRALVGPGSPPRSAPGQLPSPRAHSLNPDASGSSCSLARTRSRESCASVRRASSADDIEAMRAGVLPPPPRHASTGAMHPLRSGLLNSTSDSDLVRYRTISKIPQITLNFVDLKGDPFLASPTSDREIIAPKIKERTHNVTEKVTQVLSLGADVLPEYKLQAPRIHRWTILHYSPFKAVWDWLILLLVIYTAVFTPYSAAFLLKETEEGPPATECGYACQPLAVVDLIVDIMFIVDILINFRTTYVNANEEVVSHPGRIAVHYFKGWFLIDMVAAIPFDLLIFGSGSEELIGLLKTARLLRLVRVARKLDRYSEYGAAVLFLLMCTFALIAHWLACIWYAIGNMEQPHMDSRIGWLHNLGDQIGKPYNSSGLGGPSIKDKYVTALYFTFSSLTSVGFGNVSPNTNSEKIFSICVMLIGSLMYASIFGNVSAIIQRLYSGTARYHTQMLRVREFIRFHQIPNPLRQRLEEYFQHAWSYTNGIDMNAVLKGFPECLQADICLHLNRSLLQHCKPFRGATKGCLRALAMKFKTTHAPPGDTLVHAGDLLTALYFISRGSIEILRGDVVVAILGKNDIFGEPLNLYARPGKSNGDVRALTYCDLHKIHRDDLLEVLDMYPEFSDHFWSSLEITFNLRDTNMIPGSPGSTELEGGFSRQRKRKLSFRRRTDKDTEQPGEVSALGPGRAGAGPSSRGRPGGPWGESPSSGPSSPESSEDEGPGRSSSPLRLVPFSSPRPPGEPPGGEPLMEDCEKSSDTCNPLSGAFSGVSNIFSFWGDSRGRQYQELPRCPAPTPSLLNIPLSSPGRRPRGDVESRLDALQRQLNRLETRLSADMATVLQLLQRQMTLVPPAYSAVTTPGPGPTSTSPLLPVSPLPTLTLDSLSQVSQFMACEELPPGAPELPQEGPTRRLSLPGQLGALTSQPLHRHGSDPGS

Structure (SMILES) | Inhibition of CYP1A2 [1] | Inhibition of CYP3A4 [2] | Inhibition of CYP2C19 [3] | Agonist activity at M2 [4] | Inhibition of CYP2C9 [5] | [3H]-Astemizole binding inhibition [6] | Binding to panel [7] | Binding, % [8] [%] | CSF Aβ (4 kDa band) ([9]; 1 mg/kg s.c. twice daily) | CSF sAPPα band intensity ([9]; 1 mg/kg s.c. twice daily) | Histologic Aβ deposition, % of the lesioned, untreated group [9] [%] | % inhibition [10] [%] | Dose at which effects are seen [11] [mg/kg] | inhibition at 0.0001 µM ([12]; Rattus norvegicus, Astrocyte, at 0.1 nM, read-out: Inhibition of ApoE production) [%] | ApoE production ([12]; up to 96 hrs) | time detected in the brain after dosing [13] [min] | pKa [14]
CC[C@@H]1SC2(CCNCC2)NC1=O [AF292, (S)-2-Ethyl-1-thia-4,8-diaza-spiro[4.5]decan-3-one] | did not induce significant inhibition | did not induce significant inhibition | did not induce significant inhibition | inactive as an agonist; also recorded: M2 mAChR - no effects as agonist | did not induce significant inhibition | inactive | no binding at all | 55 | – | – | – | – | – | – | – | – | –
CC[C@@H]1SC2(CCN(C)CC2)NC1=O [AF267B, (S)-2-ethyl-8-methyl-1-thia-4,8-diaza-spiro[4.5]decan-3-one] | – | – | – | – | – | – | – | – | noticeable decrease | no significant difference | 12 | 52.5 | > 40 | 60 to 80 | inhibits the production of ApoE | 2 to 240 | 7.8
